“Also recorded” adds a separate entry of the source. Where two headings read alike, the source gives them in different places. Blank lines part the entries; values can stand above or below the compound they belong to.
Legend:
[1] = target: T1, recombinant SHIP2 phosphatase domain (Homo sapiens, UniProt O15357); assay: SHIP2 activity measurement, malachite green phosphate assay; type: biochemical; conditions: for Emax: read-out: max. inhibition of SHIP2 activity; for IC50: 100 μM PI(3,4,5)P3, four-parameter curve-fit
T1 construct: 100 ng of purified His-tagged recombinant SHIP2 phosphatase domain; His tag
T1 sequence (O15357 419-732 limits assumed): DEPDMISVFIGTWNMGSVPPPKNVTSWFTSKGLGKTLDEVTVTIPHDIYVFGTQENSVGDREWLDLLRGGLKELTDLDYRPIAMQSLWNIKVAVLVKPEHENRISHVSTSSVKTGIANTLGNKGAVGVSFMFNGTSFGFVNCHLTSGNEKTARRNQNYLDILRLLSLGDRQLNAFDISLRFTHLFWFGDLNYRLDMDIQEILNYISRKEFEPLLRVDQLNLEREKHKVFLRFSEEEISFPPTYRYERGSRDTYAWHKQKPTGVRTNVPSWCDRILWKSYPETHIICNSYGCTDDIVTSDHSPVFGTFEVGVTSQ
Protocol: For the activity measurements and other biological assays, sulfonanilides 1–12 were dissolved in DMSO and then further diluted into indicated concentrations in assay buffers or media. The capacities of 1–12 to inhibit SHIP2 activity and the IC50 values of 1–12 were measured using the recombinant SHIP2 phosphatase domain and malachite green phosphate assay at the High Throughput Biomedicine Unit (University of Helsinki, Finland). Different concentrations of 1–12 were dispensed to 384-well plates after which 100 ng of purified His-tagged recombinant SHIP2 phosphatase domain in reaction buffer (10 mM HEPES, pH 7.25, 6 mM MgCl2, 0.1% CHAPS, 250 mM sucrose and 0.25 mM EDTA) was added, and the plates were incubated for 15 min at room temperature. The reaction was started by adding 7.5 μL of PI(3,4,5)P3 (Echelon Biosciences, Salt Lake City, UT, USA) diluted in the reaction buffer (the final concentration of PI(3,4,5)P3 per well was 100 μM in the total volume of 15 μL), plates were incubated for 20 min at room temperature, and 15 μL of BIOMOL green reagent (Biomol, Plymouth Meeting, PA, USA) was added to wells. After 25 min incubation at room temperature, the absorbance was measured at 620 nm using a Pherastar FS plate reader (BMG Labtech, Offenburg, Germany) (n = 3 for each condition).
Data are presented as means ± STD or SEM of three or four independent experiments. Statistical analyses were performed using an unpaired, two-tailed Student’s t-test. P-values ≤0.05 were considered statistically significant. IC50-values were calculated using GraphPad Software, Inc., Prism version 6.05 (San Diego, CA, USA) using four-parameter curve-fit.

[2] = system: Akt phosphorylation in L6 myotubes; assay: Akt activation (phosphorylation at Ser473) assay, quantitative Western blotting; type: cell-based, Rat; conditions: 15 min pretreatment then 10 nM insulin for 15 min
Protocol: (§1) Rat L6 myoblasts (American Type Culture Collection, Manassas, Virginia, USA) and L6 myoblasts stably overexpressing HA-tagged GLUT4 transporter (L6-GLUT4) were grown in high glucose DMEM (Sigma-Aldrich) supplemented with 10% FBS (Sigma-Aldrich, St. Louis, MO, USA), glutamine (Lonza; Walkersville, MD, USA), and penicillin–streptomycin (Sigma-Aldrich) at +37 °C in a humidified 5% CO2 atmosphere. For differentiation, the FBS concentration in the medium was lowered to 2%.
To measure the Akt activation (phosphorylation), L6 myoblasts were differentiated into myotubes for 7 days, serum starved O/N, and treated with 0–50 μM sulfonanilides for 15 min after which 10 nM insulin (Actrapid, Novo Nordisk, Bagsvaerd, Denmark) was added for an additional 15 min. The cells were lysed in NP-40 buffer (1% nonidet P-40, 20 mM Tris–HCl pH 7.4, 150 mM NaCl) supplemented with phosphatase inhibitors (50 mM NaF and 1 mM Na3VO4) and protease inhibitor cocktail (cOmpleteProtease Inhibitor Coctail tablets, Roche Diagnostics GmbH, Mannheim, Germany) and then immunoblotted as in Tolvanen et al.[32] Briefly, samples were separated in 8% polyacrylamide gels and transferred onto PVDF membrane (Immobilon-FL PVDF transfer membrane, Merck Millipore Ltd., Tullagreen, Ireland). […]

L6-GLUT4 myotubes [3] = assay: On-Cell Western for HA-GLUT4 on the plasma membrane; type: cell-based, Rat; conditions: for increase of GLUT4 on the plasma membrane with insulin stimulation, compared to control cells treated with insulin / increase of GLUT4 on the plasma membrane with insulin stimulation, compared to control cells without insulin / increase of GLUT4 on the plasma membrane without insulin stimulation: 50 μM, 20 h; for increase of GLUT4 on the plasma membrane without insulin stimulation: no insulin, vs control without insulin
Protocol: as §1
Differentiated L6-GLUT4 myotubes cultured on 96-well plate were treated with sulfonanilides 10 or 11 at 50 μM concentration for 20 h, of which the last 4 h in a serum-free medium. The quiescent cells were stimulated or not with 100 nM insulin for 15 min at 37 °C and fixed with 2% paraformaldehyde on ice for 5 min followed by 20 min at room temperature. The cells were incubated with a primary antibody against HA.11 epitope tag (#901513, BioLegend, San Diego, CA, USA) diluted 1/100 in 50% Odyssey Blocking buffer (LI-COR) in PBS at room temperature for 1 h, followed by incubation with a secondary antibody (IRDye 800CW Donkey anti-Mouse, LI-COR) and the nuclear marker DRAQ-5 (Thermo Fisher Scientific, Rockford, IL, USA) at room temperature for 1 h. The fluorescent signals were detected and quantified with an Odyssey infrared imager (LI-COR). DRAQ-5 was used for normalization. Four independent experiments were performed, resulting in total in 30–34 replicates for each condition.

L6-GLUT4 myotubes [4] = assay: Radioactive 2-deoxyglucose glucose uptake assay; type: cell-based, Rat; conditions: 50 μM, 20 h; for increase of glucose uptake with insulin stimulation: 100 nM insulin 15 min, compared to control cells stimulated with insulin; for increase of glucose uptake without insulin: serum starvation, no insulin, vs control
Protocol: as §1
Glucose uptake was measured by a radioactive 2-deoxyglucose assay. L6 myotubes overexpressing GLUT4 glucose transporter were differentiated for 8–9 days. Cells were serum-starved for 20 h supplemented with 50 μM of sulfonanilides 10 or 11, 50 μM of metformin. Thereafter, cells were stimulated or not with 100 nM insulin for 15 min at 37 °C in DMEM (without D-glucose, L-glutamine, phenol red, and sodium pyruvate) (Gibco/Thermo Fisher Scientific). The cells were exposed to 1 μCi/mL 2-deoxy-D-[1, 2-^3H(N)]-glucose (PerkinElmer, Waltham MA, USA) for 5 min at 37 °C. Cells were lysed in 1% Triton X-100 in PBS, and the radioactivity of lysates was measured with a Wallac 1450 Microbeta Trilux liquid scintillator and a luminescense counter (PerkinElmer). Four independent experiments were performed, with 4 technical replicates for each condition.

L6 myotubes = assay: alamarBlue cell viability (cytotoxicity) assay; type: cell-based, Rat; conditions: for effect on metabolic activity of the cells (alamarBlue): 50 μM; for effect on cell viability: up to 200 μM
Protocol: as §1
For cytotoxicity analyses, L6 myoblasts were seeded on 96-well plates, differentiated for 7 days into myotubes, and incubated O/N with 0-300 μM sulfonanilides after which 10 μL of alamarBlue cell viability reagent (ThermoFisher Scientific, Waltham, MA, USA) was added according to the manufacturer instructions. The fluorescence was measured at 544/590 nm ± 20 nm using a Hidex Sense microplate reader (Hidex, Turku, Finland) at 0 and 60 min time points after the addition of the alamarBlue reagent, and the viability of the cells was calculated. The assay was repeated three times (n = 4 for each condition).

L6-GLUT4 myotubes [5] = system: L6-GLUT4 myotubes; set-up: method as in PMID 30321069, PMID 1505458; conditions: cited from earlier work
[6] = purified His-tagged SHIP2 phosphatase domain
[7] = purified His-tagged SHIP2 phosphatase domain, 100 μM PI(3,4,5)P3, n = 3

- IC50 [1, 6]: > 50 µM
- Emax [1, 7]: 15 ± 1.6%
Compound: CN(c1ccccc1)S(=O)(=O)c1ccc2ccccc2c1 [Compound 3, N-Methyl-2-naphthalenesulfonanilide]

- IC50 [1, 6]: > 50 µM
- Emax [1, 7]: 17 ± 2.1%
Compound: Cc1ccc(S(=O)(=O)Nc2ccc(F)cc2Br)cc1 [Compound 7, 2′-Bromo-4′-fluoro-p-toluenesulfonanilide]

- Emax [1, 7]: 10 ± 5.1%
Compound: O=S(=O)(Nc1ccc(F)cc1Br)c1ccc(F)c(F)c1F [Compound 8, 2′-Bromo-4′-fluoro-2,3,4-trifluorobenzenesulfonanilide]

- Emax [1, 7]: 9 ± 3%
Compound: O=S(=O)(Nc1ccc(F)cc1Br)c1ccoc1 [Compound 9, 2′-Bromo-4′-fluoro-3-furansulfonanilide]

- IC50 [1, 6]: 41.2 µM
- Emax [1, 7]: 45 ± 17%
Compound: O=S(=O)(Nc1ccc(F)cc1Br)c1cccs1 [Compound 10, 2′-Bromo-4′-fluoro-2-thiophenesulfonanilide]
- Akt activation at 50 μM [2]: Neither sulfonanilide 10 nor 11 activated Akt; also recorded: did not enhance Akt activation
- increase of GLUT4 on the plasma membrane with insulin stimulation, compared to control cells treated with insulin (L6-GLUT4 myotubes [3]; 100 nM insulin 15 min): 10%
- increase of GLUT4 on the plasma membrane with insulin stimulation, compared to control cells without insulin (L6-GLUT4 myotubes [3]; 100 nM insulin 15 min): 26%
- increase of GLUT4 on the plasma membrane without insulin stimulation (L6-GLUT4 myotubes [3]): 4%
- increase of glucose uptake with insulin stimulation (L6-GLUT4 myotubes [4]): 30%
- increase of glucose uptake without insulin (L6-GLUT4 myotubes [4]): 18–19%
- effect on metabolic activity of the cells (alamarBlue) (L6 myotubes): slightly enhance the metabolic activity
- effect on cell viability (L6 myotubes; O/N incubation): no or very little effect on cell viability; also recorded: not cytotoxic

- IC50 [1, 6]: 7.07 µM
- Emax [1, 7]: 45 ± 0.7%
Compound: CN(c1ccc(F)cc1F)S(=O)(=O)c1ccc(F)c(F)c1F [Compound 11, 2′,4′-Difluoro-N-methyl-2,3,4-trifluorobenzenesulfonanilide]
- Akt activation at 50 μM [2]: Neither sulfonanilide 10 nor 11 activated Akt; also recorded: did not enhance Akt activation
- increase of GLUT4 on the plasma membrane with insulin stimulation, compared to control cells treated with insulin (L6-GLUT4 myotubes [3]; 100 nM insulin 15 min): no increase
- increase of GLUT4 on the plasma membrane with insulin stimulation, compared to control cells without insulin (L6-GLUT4 myotubes [3]; 100 nM insulin 15 min): 15%
- increase of GLUT4 on the plasma membrane without insulin stimulation (L6-GLUT4 myotubes [3]): 8%
- increase of glucose uptake with insulin stimulation (L6-GLUT4 myotubes [4]): 23%
- increase of glucose uptake without insulin (L6-GLUT4 myotubes [4]): 18–19%
- effect on metabolic activity of the cells (alamarBlue) (L6 myotubes): slightly enhance the metabolic activity
- decrease of cell viability (L6 myotubes; 300 μM, O/N incubation): 24%
- effect on cell viability (L6 myotubes; O/N incubation): no or very little effect on cell viability

- max. inhibition of SHIP2 activity [1, 7]: almost inactive
- Emax [1, 7]: 5 ± 1.7%
Compound: CN(c1ccc(F)cc1F)S(=O)(=O)c1cccs1 [Compound 12, 2′,4′-Difluoro-N-methyl-2-thiophenesulfonanilide]

More lines, now with the values behind:

Compound: CN(c1ccccc1)S(=O)(=O)c1ccccc1 [Compound 1, N-Methylbenzenesulfonanilide]
- Emax [1]: 6 ± 2.8%

Compound: Cc1ccc(S(=O)(=O)N(C)c2ccccc2)cc1 [Compound 2, N-Methyl-p-toluenesulfonanilide]
- Emax [1]: 10 ± 7.2%

Compound: CN(c1ccccc1)S(=O)(=O)c1ccc(F)c(F)c1F [Compound 4, N-Methyl-2,3,4-trifluorobenzenesulfonanilide]
- IC50 [1, 6]: > 50 µM
- Emax [1, 7]: 12 ± 4%

Compound: CN(c1ccccc1)S(=O)(=O)c1ccoc1 [Compound 5, N-Methyl-3-furansulfonanilide]
- Emax [1, 7]: 3 ± 1.5%

Compound: CN(c1ccccc1)S(=O)(=O)c1cccs1 [Compound 6, N-Methyl-2-thiophenesulfonanilide]
- IC50 [1, 6]: > 50 µM
- Emax [1, 7]: 11 ± 2.2%

Compound: CN(C)C(=N)N=C(N)N [Metformin, metformin, reference compound]
- concentration necessary to increase glucose uptake into myotubes (L6-GLUT4 myotubes [5]): 2 mM
- increase of glucose uptake with insulin stimulation (L6-GLUT4 myotubes [4]): did not enhance glucose uptake; also recorded: did not increase glucose uptake
- increase of glucose uptake without insulin (L6-GLUT4 myotubes [4]): did not enhance glucose uptake

Compound: insulin: insulin (Actrapid, Novo Nordisk) used to stimulate myotubes
- increase of GLUT4 on the plasma membrane by insulin stimulation alone (L6-GLUT4 myotubes [3]; control myotubes without sulfonanilide, 100 nM insulin 15 min, vs no insulin): 16%

From article PMC6990439, “Novel Sulfonanilide Inhibitors of SHIP2 Enhance Glucose Uptake into Cultured Myotubes” (ACS Omega, 2020)
